# System: 217524-143-R1-J4-PDC spheroids with HUVEC/MSC, viability
# Test: Anticancer human tumor 217524-143-R1-J4-PDC patient-derived pancreatic carcinoma cell line growth inhibition [CLK]
# Conditions: for IC50: curve of first compound; for viability, T/C: stronger effect = lower value
# Summary of the method: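 Patient-derived tumor cells grown as complex spheroids with HUVEC endothelial cells and mesenchymal stem cells, treated with drug combinations. Concentrations descend in half-log steps from near clinical Cmax, or from 10 microM if Cmax unknown.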
# 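Note: spheroids exposed to agents for seven days before reading.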
# 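Throughout, for viability, T/C: 100% = DMSO vehicle control viability.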
smiles,measurement,setting,value
CC1COCCN1c1cc(C2(S(C)(=N)=O)CC2)nc(-c2ccnc3[nH]ccc23)n1 (centres undefined) + CN1CCN(c2cc(C(=O)Nc3cc4cc(-c5cnn(C)c5)ccc4cn3)ccn2)CC1,IC50,second compound 0.0316 µM,1430 nM
same,IC50,second compound 0.1 µM,342 nM
same,IC50,second compound 0.316 µM,< 31.6 nM
same,IC50,second compound 1 µM,< 31.6 nM
same,IC50,second compound 3.16 µM,< 31.6 nM
same,IC50,second compound 10 µM,< 31.6 nM
same,"viability, T/C","second compound 0.0316 µM, first compound 0.0316 µM",93.1%
same,"viability, T/C","second compound 0.0316 µM, first compound 0.1 µM",79.7%
same,"viability, T/C","second compound 0.0316 µM, first compound 0.316 µM",63.9%
same,"viability, T/C","second compound 0.0316 µM, first compound 1 µM",66.3%
same,"viability, T/C","second compound 0.0316 µM, first compound 3.16 µM",32.9%
same,"viability, T/C","second compound 0.0316 µM, first compound 10 µM",18.6%
same,"viability, T/C","second compound 0.1 µM, first compound 0.0316 µM",56.7%
same,"viability, T/C","second compound 0.1 µM, first compound 0.1 µM",67.3%
same,"viability, T/C","second compound 0.1 µM, first compound 0.316 µM",43.1%
same,"viability, T/C","second compound 0.1 µM, first compound 1 µM",42.3%
same,"viability, T/C","second compound 0.1 µM, first compound 3.16 µM",29.1%
same,"viability, T/C","second compound 0.1 µM, first compound 10 µM",16.4%
same,"viability, T/C","second compound 0.316 µM, first compound 0.0316 µM",22.1%
same,"viability, T/C","second compound 0.316 µM, first compound 0.1 µM",19.2%
same,"viability, T/C","second compound 0.316 µM, first compound 0.316 µM",17.1%
same,"viability, T/C","second compound 0.316 µM, first compound 1 µM",16.1%
same,"viability, T/C","second compound 0.316 µM, first compound 3.16 µM",12.3%
same,"viability, T/C","second compound 0.316 µM, first compound 10 µM",11.4%
same,"viability, T/C","second compound 1 µM, first compound 0.0316 µM",1.72%
same,"viability, T/C","second compound 1 µM, first compound 0.1 µM",1.95%
same,"viability, T/C","second compound 1 µM, first compound 0.316 µM",2.1%
same,"viability, T/C","second compound 1 µM, first compound 1 µM",1.89%
same,"viability, T/C","second compound 1 µM, first compound 3.16 µM",1.87%
same,"viability, T/C","second compound 1 µM, first compound 10 µM",1.22%
same,"viability, T/C","second compound 3.16 µM, first compound 0.0316 µM",0.77%
same,"viability, T/C","second compound 3.16 µM, first compound 0.1 µM",0.42%
same,"viability, T/C","second compound 3.16 µM, first compound 0.316 µM",0.98%
same,"viability, T/C","second compound 3.16 µM, first compound 1 µM",0.65%
same,"viability, T/C","second compound 3.16 µM, first compound 3.16 µM",0.84%
same,"viability, T/C","second compound 3.16 µM, first compound 10 µM",1.13%
same,"viability, T/C","second compound 10 µM, first compound 0.0316 µM",0.21%
same,"viability, T/C","second compound 10 µM, first compound 0.1 µM",0.17%
same,"viability, T/C","second compound 10 µM, first compound 0.316 µM",0.25%
same,"viability, T/C","second compound 10 µM, first compound 1 µM",0.29%
same,"viability, T/C","second compound 10 µM, first compound 3.16 µM",0.29%
same,"viability, T/C","second compound 10 µM, first compound 10 µM",0.25%
NC(=O)C(=Cn1cnc(-c2cc(C(F)(F)F)cc(C(F)(F)F)c2)n1)c1cncnc1 + CN1CCN(c2cc(C(=O)Nc3cc4cc(-c5cnn(C)c5)ccc4cn3)ccn2)CC1,IC50,second compound 0.0316 µM,21.8 nM
same,IC50,second compound 0.1 µM,< 9.49 nM
same,IC50,second compound 0.316 µM,< 9.49 nM
same,IC50,second compound 1 µM,< 9.49 nM
same,IC50,second compound 3.16 µM,< 9.49 nM
same,IC50,second compound 10 µM,< 9.49 nM
same,"viability, T/C","second compound 0.0316 µM, first compound 0.00949 µM",80.7%
same,"viability, T/C","second compound 0.0316 µM, first compound 0.03 µM",39.1%
same,"viability, T/C","second compound 0.0316 µM, first compound 0.0949 µM",22.3%
same,"viability, T/C","second compound 0.0316 µM, first compound 0.3 µM",21.2%
same,"viability, T/C","second compound 0.0316 µM, first compound 0.949 µM",23.1%
same,"viability, T/C","second compound 0.0316 µM, first compound 3 µM",17.8%
same,"viability, T/C","second compound 0.1 µM, first compound 0.00949 µM",35.9%
same,"viability, T/C","second compound 0.1 µM, first compound 0.03 µM",23.7%
same,"viability, T/C","second compound 0.1 µM, first compound 0.0949 µM",14%
same,"viability, T/C","second compound 0.1 µM, first compound 0.3 µM",15.4%
same,"viability, T/C","second compound 0.1 µM, first compound 0.949 µM",14.6%
same,"viability, T/C","second compound 0.1 µM, first compound 3 µM",10.6%
same,"viability, T/C","second compound 0.316 µM, first compound 0.00949 µM",10.8%
same,"viability, T/C","second compound 0.316 µM, first compound 0.03 µM",8.91%
same,"viability, T/C","second compound 0.316 µM, first compound 0.0949 µM",4.48%
same,"viability, T/C","second compound 0.316 µM, first compound 0.3 µM",4%
same,"viability, T/C","second compound 0.316 µM, first compound 0.949 µM",1.55%
same,"viability, T/C","second compound 0.316 µM, first compound 3 µM",0.81%
same,"viability, T/C","second compound 1 µM, first compound 0.00949 µM",0.79%
same,"viability, T/C","second compound 1 µM, first compound 0.03 µM",0.59%
same,"viability, T/C","second compound 1 µM, first compound 0.0949 µM",0.94%
same,"viability, T/C","second compound 1 µM, first compound 0.3 µM",0.88%
same,"viability, T/C","second compound 1 µM, first compound 0.949 µM",0.76%
same,"viability, T/C","second compound 1 µM, first compound 3 µM",1.07%
same,"viability, T/C","second compound 3.16 µM, first compound 0.00949 µM",0.72%
same,"viability, T/C","second compound 3.16 µM, first compound 0.03 µM",0.67%
same,"viability, T/C","second compound 3.16 µM, first compound 0.0949 µM",0.62%
same,"viability, T/C","second compound 3.16 µM, first compound 0.3 µM",0.55%
same,"viability, T/C","second compound 3.16 µM, first compound 0.949 µM",0.69%
same,"viability, T/C","second compound 3.16 µM, first compound 3 µM",0.68%
same,"viability, T/C","second compound 10 µM, first compound 0.00949 µM",0.2%
same,"viability, T/C","second compound 10 µM, first compound 0.03 µM",0.17%
same,"viability, T/C","second compound 10 µM, first compound 0.0949 µM",0.21%
same,"viability, T/C","second compound 10 µM, first compound 0.3 µM",0.22%
same,"viability, T/C","second compound 10 µM, first compound 0.949 µM",0.24%
same,"viability, T/C","second compound 10 µM, first compound 3 µM",0.2%
